Measurements published in article PMC7211198, “Phase 1b study of a small molecule antagonist of human chemokine (C-C motif) receptor 2 (PF-04136309) in combination with nab-paclitaxel/gemcitabine in first-line treatment of metastatic pancreatic ductal adenocarcinoma” (Investigational New Drugs, 2019).
Where “and” joins values, the source holds several entries; their conditions need not be identical. Equal entries are not always repeated.

Legend:
[1] = test system: metastatic pancreatic ductal adenocarcinoma; experiment: Antitumor response per RECIST version 1.1, mITT population; assay type: in vivo, human; conditions: for Best overall response: Complete response / Best overall response: Early death / Best overall response: Indeterminate / Best overall response: Objective progression / Best overall response: Partial response / Best overall response: Stable/no response / Best overall response: Unconfirmed complete response / Best overall response: Unconfirmed partial response / Objective response rate (95% exact CI): mITT; for ORR: 95% exact CI
Experimental: The modified intent-to-treat (mITT) population was defined as all patients who had received at least one dose of study medication and had measurable disease at baseline assessment (within 28 days prior to study entry). The mITT population was assessed for antitumor response.
Objective response rate (ORR) was defined as the proportion of patients with confirmed complete response (CR) or confirmed PR according to Response Evaluation Criteria In Solid Tumors, version 1.1, relative to all enrolled patients who had baseline measurable disease. Confirmed responses were those that persisted on repeat imaging ≥4 weeks after initial documentation of response. Indeterminate responses were those with no documented progression and absence of proper assessment of target lesions.
Patients without on-study radiographic tumor re-evaluation and those who died, progressed, or dropped out for any reason prior to reaching a CR or PR were counted as nonresponders in the assessment of ORR. The ORR, CR, and PR point estimates for each treatment arm were provided along with the corresponding two-sided 95% confidence intervals (CIs) using an exact method.
Imaging for tumor assessments included computed tomography (CT) or MRI scans of the chest, abdomen, and pelvis; brain CT or MRI scan for patients with known or suspected brain metastases; and bone scan and/or bone X-rays for patients with known or suspected bone metastases.

[2] = Multiple-dose plasma pharmacokinetics, cycle 1 day 15; assay type: in vivo, human
Experimental: The hypothetical mechanisms of action of PF-04136309 were explored by analysis of biopsies, bone marrow aspirates, and peripheral blood (pre- and post-treatment during the study). Serial blood samples were collected from patients to determine the multiple-dose PK of PF-04136309 given in combination with nab-paclitaxel/gemcitabine.
Blood samples sufficient to provide ≥1 mL of plasma were collected for measurement of PF-04136309 concentrations. Plasma PF-04136309 concentrations were quantified with a validated liquid chromatography–mass spectrometry method. PF-04136309 concentration–time data from cycle 1 day 15 were analyzed using noncompartmental methods to estimate PK parameters.

CCL2 = experiment: Plasma CCL2 levels by luminex-based immunoassay; assay type: in vivo, human; conditions: most patients, 500 mg (n = 17) and 750 mg (n = 4) BID, over the course of study
Experimental: (§1) The levels of CD14 + CCR2+ IM or other immune-cell phenotypes in the samples from the core needle biopsy, fine-needle aspirate from primary tumor tissue, bone marrow, and peripheral blood were assessed by flow cytometry. CCL2 levels were determined using whole blood plasma by immunoassay using a luminex-based method. The ex vivo inhibition of CCL2-induced pERK by PF-04136309 was measured in whole blood using flow cytometry. Percentages of CD4+, CD8+, and CD4 + FoxP3+ T cells within CD45+ populations were evaluated by flow cytometry in paired fresh biopsy samples from three patients. Two patients provided both baseline and on-study biopsies, and one patient provided a baseline biopsy only.

CCL2-induced pERK = experiment: Ex vivo CCL2-induced pERK in whole blood by flow cytometry (target engagement); design: species or system human; conditions: most patients, 500 mg (n = 17) and 750 mg (n = 4) BID, over the course of study
Text: The primary objectives were to evaluate the safety and tolerability of PF-04136309 in combination with nab-paclitaxel/gemcitabine, to characterize the dose-limiting toxicities (DLTs), and determine the RP2D of PF-04136309. Secondary objectives included assessment of PF-04136309 PK analysis and ex vivo inhibition of CCL2-induced extracellular signal-regulated kinase phosphorylation (pERK) as a measure of target engagement. Exploratory objectives included evaluation of CCL2 levels in peripheral blood and the prevalence of IM, TAM, and other relevant immune cells in the peripheral blood, bone marrow, and core needle biopsy of metastases or fine-needle aspirate primary tumor tissue.
as §1

[3] = test system: CD14 + CCR2+ inflammatory monocytes; experiment: CD14+CCR2+ inflammatory monocytes in peripheral blood and bone marrow by flow cytometry; assay type: in vivo, human
Experimental: as §1

[4] = test system: T cells and CCR2+ TAM in tumor biopsy; experiment: Immune cells in tumor biopsy samples by flow cytometry; assay type: in vivo, human
Experimental: as §1

[5] = test system: metastatic pancreatic ductal adenocarcinoma; experiment: Antitumor response per RECIST version 1.1, mITT population; assay type: in vivo, human; conditions: 500 mg group; 2 of 17 with progression events, rest censored; not an appropriate estimate
[6] = design: method as in PMID 27055731; conditions: cited from earlier work
CCR2 = conditions: human monocytes and human whole blood; background statement, no reference given; cited from earlier work
[7] = 500-mg BID (n = 13), steady state
[8] = 500-mg BID group (n = 13), steady state
[9] = 750-mg BID group (n = 2), individual values

In the case of `O=C(NCC(=O)N1CC[C@H](N[C@H]2CC[C@@](O)(c3ccc(-c4ncccn4)cn3)CC2)C1)c1cccc(C(F)(F)F)c1` [PF-04136309], the “Best overall response: Complete response” value ([1]; 500 mg BID + nab-P/Gem, N = 17) is reported as 0 n (%), the “Best overall response: Early death” value ([1]; 500 mg BID + nab-P/Gem, N = 17) is reported as 1 (5.9) n (%) and the “Best overall response: Indeterminate” value ([1]; 500 mg BID + nab-P/Gem, N = 17) is reported as 5 (29.4) n (%). For the same molecule, the “Best overall response: Objective progression” value ([1]; 500 mg BID + nab-P/Gem, N = 17) was 3 (17.6) n (%), the “Best overall response: Partial response” value ([1]; 500 mg BID + nab-P/Gem, N = 17) was 5 (29.4) n (%) and the “Best overall response: Stable/no response” value ([1]; 500 mg BID + nab-P/Gem, N = 17) was 2 (11.8) n (%). For the same molecule, the “Best overall response: Unconfirmed complete response” value ([1]; 500 mg BID + nab-P/Gem, N = 17) was 0 n (%), the “Best overall response: Unconfirmed partial response” value ([1]; 500 mg BID + nab-P/Gem, N = 17) was 1 (5.9) n (%) and the “Objective response rate (95% exact CI)” value ([1]; 500 mg BID + nab-P/Gem, N = 17) was 5 (29.4) (10.3–56.0) n (%). The ORR ([1]; 500 mg BID group (n = 17), 10.3–56.0%) was 29.4%, the “Best overall response: Complete response” value ([1]; 750 mg BID + nab-P/Gem, N = 4) was 0 n (%) and the “Best overall response: Early death” value ([1]; 750 mg BID + nab-P/Gem, N = 4) was 0 n (%). The “Best overall response: Indeterminate” value ([1]; 750 mg BID + nab-P/Gem, N = 4) was 2 (50.0) n (%), the “Best overall response: Objective progression” value ([1]; 750 mg BID + nab-P/Gem, N = 4) was 0 n (%) and the “Best overall response: Partial response” value ([1]; 750 mg BID + nab-P/Gem, N = 4) was 0 n (%). For the same molecule, the “Best overall response: Stable/no response” value ([1]; 750 mg BID + nab-P/Gem, N = 4) was 1 (25.0) n (%), the “Best overall response: Unconfirmed complete response” value ([1]; 750 mg BID + nab-P/Gem, N = 4) was 0 n (%) and the “Best overall response: Unconfirmed partial response” value ([1]; 750 mg BID + nab-P/Gem, N = 4) was 1 (25.0) n (%). For the same molecule, the “Objective response rate (95% exact CI)” value ([1]; 750 mg BID + nab-P/Gem, N = 4) was 0 (0.0–60.2) n (%), the ORR ([1]; all 21 patients, 8.2–47.2%) was 23.8% and the “Coefficient of variation of AUCtau” value [2, 7] was 30%. For the same molecule, the “Coefficient of variation of Cmax” value [2, 7] was 44%, the “Coefficient of variation of Cmin” value [2, 7] was 57% and the “Mean AUCtau” value [2, 8] was 5873 ng·h/mL. For the same molecule, the “Mean Cmax” value [2, 8] was 1276 ng/mL, the “Median Tmax” value ([2]; 500-mg BID, oral, with nab-paclitaxel/gemcitabine) was 1.42 h and the “AUCtau, observed values” [2, 9] was 10,600 ng·hr/mL and 15,700 ng·hr/mL. For the same molecule, the “Cmax, observed values” [2, 9] was 2950 ng/mL and 3390 ng/mL, the “Change in plasma CCL2 levels” value (CCL2) was “increase” and the “Change in CCL2-induced pERK” value (CCL2-induced pERK) was “drop”. For the same molecule, the “Accumulation of CCR2 + CD14+ monocytes in the bone marrow” value ([3]; 500 mg BID, week 6 post dosing vs baseline) was “not observed”, the “Change in absolute counts of CD14 + CCR2+ IM in peripheral blood” value ([3]; nearly all patients, baseline to study day 2, sustained through day 15) was “drop” and the “Change in PD-1 + CD4+ and PD-1 + CD8+ cells in the tumor biopsy sample” value ([4]; one patient, data not shown) was “increase”. For the same molecule, the “CCR2+ TAM levels, change” value ([4]; two patients, 500-mg BID group, individual values, data not shown) was ~4% to 3%, the “Change in CD4+ and CD8+ cells within CD45+ populations in fresh biopsy tumor samples” value ([4]; two patients, 500-mg BID group, baseline vs week 6) was “increase” and the “Median progression-free survival (mPFS)” value [5] was 5.3 months. The “Proportion of patients achieving partial response vs that anticipated with FOLFIRINOX alone” value ([6]; phase Ib, in combination with FOLFIRINOX) was “significantly increased”, the Pulmonary events reported ([6]; single agent, non-oncology studies (N = 178) and 39 advanced PDAC patients with FOLFIRINOX) was “no pulmonary events” and the Safety and tolerability ([6]; single oral dose up to 1000 mg, repeated oral up to 500 mg BID as single agent or with FOLFIRINOX) was “generally safe and well tolerated”. For the same molecule, the Tolerability ([6]; with FOLFIRINOX, borderline resectable and locally advanced pancreatic cancer) was “well-tolerated” and the “Effect on CCR2-mediated signal transduction, chemotaxis, and CCL2 binding” value (CCR2) was “block”.
